Patent publication US12252524B2, “GIP/GLP1 co-agonist compounds” (Eli Lilly and Company, priority 2018, dated 2025)
Like-named read-outs stand apart in the source and are kept apart here. Numbered stars: 1 amine (or outer) side, 2 acyl side, 3 side chain; on linkers, the order of the positions; unused ones are H or OH. Square brackets hold non-standard residues; d marks the D form. Side chains are listed from the residue outwards. Peptide text beside a SMILES is read from it. * marks the point of attachment. C20 diacid = O=C(O)CCCCCCCCCCCCCCCCCCC(=O)*; γGlu = O=C(O)[C@H](CCC(=O)[*:2])N[*:1]; αMeY = C[C@](N)(Cc1ccc(O)cc1)C(=O)O; αMeF = C[C@](N)(Cc1ccccc1)C(=O)O; αMeL = CC(C)C[C@](C)(N)C(=O)O; Dab = NCC[C@H](N)C(=O)O; Dap = NC[C@H](N)C(=O)O; AEEA = NCCOCCOCC(=O)O; Aib = CC(C)(N)C(=O)O

Legend:
[1] = target: human GLP-1 receptor (GLP-1R) (Homo sapiens, UniProt P43220); test: cAMP pharmacological functional assay in presence of casein, hGLP-1R; format: cell-based
Sequence of human GLP-1 receptor (GLP-1R) (P43220 24-463): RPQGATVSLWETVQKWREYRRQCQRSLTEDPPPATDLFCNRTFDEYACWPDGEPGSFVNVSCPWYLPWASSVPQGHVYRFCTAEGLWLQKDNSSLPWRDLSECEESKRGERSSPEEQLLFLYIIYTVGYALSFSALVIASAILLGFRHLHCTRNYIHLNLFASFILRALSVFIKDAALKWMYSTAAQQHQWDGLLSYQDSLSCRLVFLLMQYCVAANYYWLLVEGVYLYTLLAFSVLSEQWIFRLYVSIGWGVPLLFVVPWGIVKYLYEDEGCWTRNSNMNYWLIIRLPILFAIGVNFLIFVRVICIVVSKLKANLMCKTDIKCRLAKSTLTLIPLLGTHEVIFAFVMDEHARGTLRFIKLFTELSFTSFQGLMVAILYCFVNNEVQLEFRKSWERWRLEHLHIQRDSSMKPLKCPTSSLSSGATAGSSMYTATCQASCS

[2] = target: T1, gastric inhibitory peptide receptor (GIPR) (Homo sapiens, UniProt P48546); test: cAMP pharmacological functional assay in presence of casein, hGIPR; format: cell-based
T1 sequence (P48546 22-466): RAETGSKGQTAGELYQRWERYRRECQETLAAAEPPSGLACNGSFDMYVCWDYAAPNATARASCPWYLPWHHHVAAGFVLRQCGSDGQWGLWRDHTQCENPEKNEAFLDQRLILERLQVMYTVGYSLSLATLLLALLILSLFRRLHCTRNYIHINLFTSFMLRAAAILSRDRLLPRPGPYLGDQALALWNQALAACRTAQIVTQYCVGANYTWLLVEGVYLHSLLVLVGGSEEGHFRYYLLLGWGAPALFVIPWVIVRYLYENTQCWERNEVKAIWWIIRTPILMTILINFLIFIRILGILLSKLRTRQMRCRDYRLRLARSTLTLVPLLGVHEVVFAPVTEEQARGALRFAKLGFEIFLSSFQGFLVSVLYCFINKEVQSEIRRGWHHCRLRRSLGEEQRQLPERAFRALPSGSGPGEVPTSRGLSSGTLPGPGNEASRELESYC

human GLP-1R [3] = target: T2, human GLP-1R (Homo sapiens, UniProt P43220); test: GLP-1R CHO cell β-arrestin recruitment assay; format: cell-based; set-up: host or cells: CHO-K1 PathHunter cells, assay-ready frozen; settings: for hGLP1R B-Arrestin2 % Top: normalized to GLP-1 maximum control
T2 sequence (P43220 24-463): as the sequence (P43220 24-463) above
From the text: Activated G-protein coupled receptors can interact with the β-arrestin family of signalling proteins. […] CHO-K1 cells expressing Pro-Link-tagged Human GLP-1R and enzyme-acceptor-tagged β-arrestin-2 may be obtained from DiscoveRx and prepared as assay-ready frozen cells. Test peptides are solubilized in DMSO and serial dilutions are perfomed using the Echo acoustic dispenser (LabCyte). Assay media is the PathHunter Cell Assay Buffer (DiscoveRx) containing 0.1% w/v hydrolyzed Casein (Sigma). […] Plates are incubated for 90 minutes in a 37′C/5% C02 incubator and 10 ul of PathHunter detection reagent is added (DiscoveRx) and plates are incubated at room temperature for 60 minutes. Luminescence signal is measured. Peptide concentration-response curves fit to a four-parameter logistic model to calculate potency as an EC50.

human GLP-1R [4] = target: T2, human GLP-1R; test: GLP-1R HEK293 cell membrane [35S]GTPγS binding assay; format: biochemical; set-up: expressed in transfected cells; host or cells: HEK293 cells expressing human GLP-1R; membranes
Procedure, shortened: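 Agonist-driven Gαs activation read as [35S]GTPγS ([…]) binding to receptor-expressing HEK293 membranes, 30 min at room temperature, pH 7.4. Detection by anti-Gαs immunocapture on scintillation beads; EC50 derived from four-parameter logistic concentration-response fit.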

[5] = HEK293 cells expressing hGLP-1R, 0.1% Casein, geometric mean, read-out: hGLP1R cAMP Rel EC50 nM (SEM, n)
[6] = HEK293 cells expressing hGIPR, 0.1% Casein, geometric mean, read-out: hGIPR cAMP Rel EC50 nM (SEM, n)
[7] = CHO-K1 cells, PathHunter β-arrestin-2 recruitment, 0.1% casein, read-out: hGLP1R B-Arrestin2 Rel EC50 uM (SEM, n)
[8] = HEK293 cell membranes expressing human GLP-1R, [35S]GTPγS binding, read-out: hGLP1R GTPgS Rel EC50 nM (SEM, n)

Structure (SMILES)	EC50 [1]	EC50 [2]	EC50 (human GLP-1R [3])	hGLP1R B-Arrestin2 % Top (human GLP-1R [3])	EC50 (human GLP-1R [4])	EC50 [1, 5]	EC50 [2, 6]	EC50 (human GLP-1R [3]; [7])	EC50 (human GLP-1R [4]; [8])
CC[C@H](C)[C@H](NC(=O)[C@H](CC(C)C)NC(=O)[C@H](Cc1ccc(O)cc1)NC(=O)[C@H](CCC(=O)O)NC(=O)[C@@H](NC(=O)[C@H](Cc1ccccc1)NC(=O)[C@H](CCC(=O)O)NC(=O)C(C)(C)NC(=O)[C@H](CCC(N)=O)NC(=O)[C@H](C)NC(=O)[C@H](CCCCNC(=O)COCCOCCNC(=O)COCCOCCNC(=O)CC[C@H](NC(=O)CCCCCCCCCCCCCCCCCCC(=O)O)C(=O)O)NC(=O)[C@H](CCCCN)NC(=O)[C@H](CC(=O)O)NC(=O)[C@H](CC(C)C)NC(=O)[C@](C)(CC(C)C)NC(=O)[C@@H](NC(=O)[C@H](CO)NC(=O)[C@H](Cc1ccc(O)cc1)NC(=O)[C@H](CC(=O)O)NC(=O)[C@H](CO)NC(=O)[C@@H](NC(=O)[C@](C)(Cc1ccccc1)NC(=O)[C@@H](NC(=O)CNC(=O)[C@H](CCC(=O)O)NC(=O)C(C)(C)NC(=O)[C@H](N)Cc1ccc(O)cc1)[C@@H](C)O)[C@@H](C)O)[C@@H](C)CC)[C@@H](C)CC)C(=O)N[C@@H](C)C(=O)NCC(=O)NCC(=O)N1CCC[C@H]1C(=O)N[C@@H](CO)C(=O)N[C@@H](CO)C(=O)NCC(=O)N[C@@H](C)C(=O)N1CCC[C@H]1C(=O)N1CCC[C@H]1C(=O)N1CCC[C@H]1C(=O)N[C@@H](CO)C(N)=O [Example 345] (H-[dY][Aib]EGT[αMeF]TSDYSI[αMeL]LDKK([AEEA-AEEA-γGlu-C20 diacid])AQ[Aib]EFIEYLIAGGPSSGAPPPS-NH2)	0.035 nM	0.0649 nM	0.00308 µM	74.7%	0.684 nM				
CC[C@H](C)[C@H](NC(=O)[C@H](CC(C)C)NC(=O)[C@H](Cc1ccc(O)cc1)NC(=O)[C@H](CCC(=O)O)NC(=O)[C@@H](NC(=O)[C@H](Cc1ccccc1)NC(=O)[C@H](C)NC(=O)C(C)(C)NC(=O)[C@H](CCC(N)=O)NC(=O)[C@H](C)NC(=O)[C@H](CCCCNC(=O)COCCOCCNC(=O)COCCOCCNC(=O)CC[C@H](NC(=O)CCCCCCCCCCCCCCCCCCC(=O)O)C(=O)O)NC(=O)[C@H](CCN)NC(=O)[C@H](CC(=O)O)NC(=O)[C@H](CC(C)C)NC(=O)[C@](C)(CC(C)C)NC(=O)[C@@H](NC(=O)[C@H](CO)NC(=O)[C@H](Cc1ccc(O)cc1)NC(=O)[C@H](CC(=O)O)NC(=O)[C@H](CO)NC(=O)[C@@H](NC(=O)[C@H](Cc1ccccc1)NC(=O)[C@@H](NC(=O)CNC(=O)[C@H](CCC(=O)O)NC(=O)C(C)(C)NC(=O)[C@H](N)Cc1ccc(O)cc1)[C@@H](C)O)[C@@H](C)O)[C@@H](C)CC)[C@@H](C)CC)C(=O)N[C@@H](C)C(=O)NCC(=O)NCC(=O)N1CCC[C@H]1C(=O)N[C@@H](CO)C(=O)N[C@@H](CO)C(=O)NCC(=O)N[C@@H](C)C(=O)N1CCC[C@H]1C(=O)N1CCC[C@H]1C(=O)N1CCC[C@H]1C(=O)N[C@@H](CO)C(N)=O [Example 347] (H-[dY][Aib]EGTFTSDYSI[αMeL]LD[Dab]K([AEEA-AEEA-γGlu-C20 diacid])AQ[Aib]AFIEYLIAGGPSSGAPPPS-NH2)				24.6%		0.102 nM	0.0827 nM	0.00542 µM	0.759 nM
CC[C@H](C)[C@H](NC(=O)[C@H](CC(C)C)NC(=O)[C@H](Cc1ccc(O)cc1)NC(=O)[C@H](CCC(=O)O)NC(=O)[C@@H](NC(=O)[C@H](Cc1ccccc1)NC(=O)[C@H](C)NC(=O)C(C)(C)NC(=O)[C@H](CCC(N)=O)NC(=O)[C@H](C)NC(=O)[C@H](CCCCNC(=O)COCCOCCNC(=O)COCCOCCNC(=O)CC[C@H](NC(=O)CCCCCCCCCCCCCCCCCCC(=O)O)C(=O)O)NC(=O)[C@H](CN)NC(=O)[C@H](CC(=O)O)NC(=O)[C@H](CC(C)C)NC(=O)[C@](C)(CC(C)C)NC(=O)[C@@H](NC(=O)[C@H](CO)NC(=O)[C@H](Cc1ccc(O)cc1)NC(=O)[C@H](CC(=O)O)NC(=O)[C@H](CO)NC(=O)[C@@H](NC(=O)[C@H](Cc1ccccc1)NC(=O)[C@@H](NC(=O)CNC(=O)[C@H](CCC(=O)O)NC(=O)C(C)(C)NC(=O)[C@H](N)Cc1ccc(O)cc1)[C@@H](C)O)[C@@H](C)O)[C@@H](C)CC)[C@@H](C)CC)C(=O)N[C@@H](C)C(=O)NCC(=O)NCC(=O)N1CCC[C@H]1C(=O)N[C@@H](CO)C(=O)N[C@@H](CO)C(=O)NCC(=O)N[C@@H](C)C(=O)N1CCC[C@H]1C(=O)N1CCC[C@H]1C(=O)N1CCC[C@H]1C(=O)N[C@@H](CO)C(N)=O [Example 348] (H-[dY][Aib]EGTFTSDYSI[αMeL]LD[Dap]K([AEEA-AEEA-γGlu-C20 diacid])AQ[Aib]AFIEYLIAGGPSSGAPPPS-NH2)				19.8%		0.113 nM	0.193 nM	0.00346 µM	0.66 nM
CC[C@H](C)[C@H](NC(=O)[C@H](CC(C)C)NC(=O)[C@H](Cc1ccc(O)cc1)NC(=O)[C@H](CCC(=O)O)NC(=O)[C@@H](NC(=O)[C@H](Cc1ccccc1)NC(=O)[C@H](CCC(=O)O)NC(=O)C(C)(C)NC(=O)[C@H](CCC(N)=O)NC(=O)[C@H](C)NC(=O)[C@H](CCCCNC(=O)COCCOCCNC(=O)COCCOCCNC(=O)CC[C@H](NC(=O)CCCCCCCCCCCCCCCCCCC(=O)O)C(=O)O)NC(=O)[C@H](CCN)NC(=O)[C@H](CC(=O)O)NC(=O)[C@H](CC(C)C)NC(=O)[C@](C)(CC(C)C)NC(=O)[C@@H](NC(=O)[C@H](CO)NC(=O)[C@H](Cc1ccc(O)cc1)NC(=O)[C@H](CC(=O)O)NC(=O)[C@H](CO)NC(=O)[C@@H](NC(=O)[C@H](Cc1ccccc1)NC(=O)[C@@H](NC(=O)CNC(=O)[C@H](CCC(=O)O)NC(=O)C(C)(C)NC(=O)[C@H](N)Cc1ccc(O)cc1)[C@@H](C)O)[C@@H](C)O)[C@@H](C)CC)[C@@H](C)CC)C(=O)N[C@@H](C)C(=O)NCC(=O)NCC(=O)N1CCC[C@H]1C(=O)N[C@@H](CO)C(=O)N[C@@H](CO)C(=O)NCC(=O)N[C@@H](C)C(=O)N1CCC[C@H]1C(=O)N1CCC[C@H]1C(=O)N1CCC[C@H]1C(=O)N[C@@H](CO)C(N)=O [Example 350] (H-[dY][Aib]EGTFTSDYSI[αMeL]LD[Dab]K([AEEA-AEEA-γGlu-C20 diacid])AQ[Aib]EFIEYLIAGGPSSGAPPPS-NH2)				21.8%		0.107 nM	0.189 nM	0.0108 µM	0.589 nM
CC[C@H](C)[C@H](NC(=O)[C@H](CC(C)C)NC(=O)[C@](C)(Cc1ccc(O)cc1)NC(=O)[C@H](CCC(=O)O)NC(=O)[C@@H](NC(=O)[C@H](Cc1ccccc1)NC(=O)[C@H](C)NC(=O)C(C)(C)NC(=O)[C@H](CCC(N)=O)NC(=O)[C@H](C)NC(=O)[C@H](CCCCNC(=O)COCCOCCNC(=O)COCCOCCNC(=O)CC[C@H](NC(=O)CCCCCCCCCCCCCCCCCCC(=O)O)C(=O)O)NC(=O)[C@H](CCC(=O)O)NC(=O)[C@H](CC(=O)O)NC(=O)[C@H](CC(C)C)NC(=O)[C@](C)(CC(C)C)NC(=O)[C@@H](NC(=O)[C@H](CO)NC(=O)[C@H](Cc1ccc(O)cc1)NC(=O)[C@H](CC(=O)O)NC(=O)[C@H](CO)NC(=O)[C@@H](NC(=O)[C@H](Cc1ccccc1)NC(=O)[C@@H](NC(=O)CNC(=O)[C@H](CCC(=O)O)NC(=O)C(C)(C)NC(=O)[C@H](N)Cc1ccc(O)cc1)[C@@H](C)O)[C@@H](C)O)[C@@H](C)CC)[C@@H](C)CC)C(=O)N[C@@H](C)C(=O)NCC(=O)NCC(=O)N1CCC[C@H]1C(=O)N[C@@H](CO)C(=O)N[C@@H](CO)C(=O)NCC(=O)N[C@@H](C)C(=O)N1CCC[C@H]1C(=O)N1CCC[C@H]1C(=O)N1CCC[C@H]1C(=O)N[C@@H](CO)C(N)=O [Example 381] (H-[dY][Aib]EGTFTSDYSI[αMeL]LDEK([AEEA-AEEA-γGlu-C20 diacid])AQ[Aib]AFIE[αMeY]LIAGGPSSGAPPPS-NH2)				25.8%				0.0155 µM	0.273 nM
